How the values were obtained:
Assay type in all cases: in vivo
Amaranthus retroflexus [1] = assay: Farming soil treatment test; conditions: soil surface spray prior to weed growth, 30 days, 30° C.
Method: (§1) 2. Farming Soil Treatment Test
(§2) Field soil was filled into a 1/6000 are pot followed by seeding with Digitaria ciliaris, Chenopodium album and Amaranthus retroflexus and covering with soil.
(§3) Wettable powders of compounds of formula (I) shown in Table 1 prepared in compliance with the preparation examples were diluted with water to the prescribed amount of chemical and uniformly sprayed onto each soil surface layer using 100 liters of sprayed water per 10 are prior to weed growth following seeding.
(§4) After treating for 30 days in a glass greenhouse at an average atmospheric temperature of 30° C., the herbicidal efficacy thereof was investigated.
(§5) Evaluation of herbicidal efficacy was carried out in the same manner as the above-mentioned Test Example 1.

Digitaria ciliaris [2] = assay: Farming soil treatment test; conditions: soil surface spray prior to weed growth, 30 days, 30° C.
Method: as §1, §2, §3, §4, §5

Chenopodium album [3] = assay: Farming soil treatment test; conditions: soil surface spray prior to weed growth, 30 days, 30° C.
Method: as §1, §2, §3, §4, §5

Oryza sativa = assay: Paddy herbicidal activity test, phytotoxicity to transplanted rice; conditions: rice transplanted at 2.0 leaf stage, 30 days, 30° C.
Method: (§6) 1. Paddy Herbicidal Activity Test
(§7) Rice paddy soil was filled into a 1/10000 are pot followed by the addition of suitable amounts of water and chemical fertilizer, kneading, seeding with Echinochloa crus-galli, Monochoria vaginalis and Scirpus juncoides and maintaining in an irrigated state at a water depth of 3 cm.
(§8) Wettable powders of Target Compound (I) shown in. Table 1 prepared in compliance with the preparation examples were diluted with a suitable amount of water, rice plants in the 2.0 leaf stage were transplanted during 3.5 leaf stage of Echinochloa crus-galli, and treated by dropping in chemical in the prescribed amount per 10 are using a pipette.
as §4
(§9) Evaluation of herbicidal efficacy was carried out by comparing growth inhibition rate (%) with an untreated group, while evaluation of phytotoxicity was carried out by comparing growth inhibition rate (%) with the state of a complete eradication group, and were evaluated at 11 levels indicated below.

Scirpus juncoides = assay: Paddy herbicidal activity test; conditions: irrigated paddy pot, 30 days, 30° C.
Method: as §6, §7, §8, §4, §9

Echinochloa crus-galli = assay: Paddy herbicidal activity test; conditions: irrigated paddy pot, treated at 3.5 leaf stage of Echinochloa crus-galli, 30 days, 30° C.
Method: as §6, §7, §8, §4, §9

Monochoria vaginalis = assay: Paddy herbicidal activity test; conditions: irrigated paddy pot, 30 days, 30° C.
Method: as §6, §7, §8, §4, §9

Galinsoga parviflora = assay: Weed foliar treatment test (Test 4, 4.0 to 5.0 leaf stage); conditions: 10g a.i./10a; foliar spray at 4.0 to 5.0 leaf stage of Digitaria ciliaris; 20 days, 25° C.
Method: (§10) 4. Weed Foliar Treatment Test
(§11) Field soil was filled into a 1/4500 are pot followed by seeding with Digitaria ciliaris and Galinsoga parviflora, covering with soil and cultivating in a glass greenhouse at an average atmospheric temperature of 25° C.
(§12) Wettable powders of Target Compound (I) shown in Table 1 prepared in compliance with the preparation examples were diluted with water to the prescribed amount of chemical and uniformly sprayed onto the weeds using 100 liters of sprayed water per 10 are when Digitaria ciliaris had grown to the 4.0 to 5.0 leaf stage (plant height: 10 cm to 15 cm).
(§13) After treating for 20 days in a glass greenhouse at an average atmospheric temperature of 25° C., the herbicidal efficacy thereof was investigated.
as §5

Digitaria ciliaris [4] = assay: as above; conditions: 10g a.i./10a; foliar spray at 4.0 to 5.0 leaf stage of Digitaria ciliaris (plant height 10 cm to 15 cm); 20 days, 25° C.
Method: as §10, §11, §12, §13, §5

Amaranthus retroflexus [5] = assay: Weed foliar treatment test (Test 3, 1.0 to 2.0 leaf stage); conditions: foliar spray at 1.0 to 2.0 leaf stage of Digitaria ciliaris, 3 weeks, 25° C.
Method: (§14) 3. Weed Foliar Treatment Test
(§15) Soil was filled into a 1/6000 are pot followed by seeding with Digitaria ciliaris, Chenopodium album and Amaranthus retroflexus, covering with soil, and cultivating in a glass greenhouse at an average atmospheric temperature of 25° C.
as §12, with “150” for “100”, “1.0” for “4.0”, “2.0” for “5.0”, “stage.” for “stage (plant height: 10 cm to 15 cm).”
(§16) After treating for 3 weeks in a glass greenhouse at an average atmospheric temperature of 25° C., the herbicidal efficacy thereof was investigated.
as §5

Digitaria ciliaris [6] = assay: as above; conditions: foliar spray at 1.0 to 2.0 leaf stage of Digitaria ciliaris, 3 weeks, 25° C.
Method: as §14, §15
as §12, with “150” for “100”, “1.0” for “4.0”, “2.0” for “5.0”, “stage.” for “stage (plant height: 10 cm to 15 cm).”
as §16, §5

Chenopodium album [7] = assay: as above; conditions: foliar spray at 1.0 to 2.0 leaf stage of Digitaria ciliaris, 3 weeks, 25° C.
Method: as §14, §15
as §12, with “150” for “100”, “1.0” for “4.0”, “2.0” for “5.0”, “stage.” for “stage (plant height: 10 cm to 15 cm).”
as §16, §5

SMILES | herbicidal efficacy, Amaranthus retroflexus (Amaranthus retroflexus [1]; 5g a.i./10a) | herbicidal efficacy, Amaranthus retroflexus (Amaranthus retroflexus [1]; 10g a.i./10a) | herbicidal efficacy, Digitaria ciliaris (Digitaria ciliaris [2]; 5g a.i./10a) | herbicidal efficacy, Digitaria ciliaris (Digitaria ciliaris [2]; 10g a.i./10a) | herbicidal efficacy, Chenopodium album (Chenopodium album [3]; 5g a.i./10a) | herbicidal efficacy, Chenopodium album (Chenopodium album [3]; 10g a.i./10a) | herbicidal efficacy, Galinsoga parviflora (Galinsoga parviflora) | herbicidal efficacy, Digitaria ciliaris (Digitaria ciliaris [4]) | further results
CN(C(=O)CC1CC1)c1c(C#N)cnn1-c1nn2c(c1Cl)CCCC2 [Compound 1, Methyl N-(1-(3-chloro-4,5,6,7-tetrahydropyrazolo[1,5-a]pyridin-2-yl)4-cyanopyrazol-5-yl)-2-cyclopropyl Acetoamide] | 10 (10: 100%) | 10 (10: 100%) | 9 (9: 90% to less than 100%) | 10 (10: 100%) | 10 (10: 100%) | 10 (10: 100%) |  |  | 
O=C(Nc1c([N+](=O)[O-])cnn1-c1nn2c(c1Cl)CCCC2)C1CC1 [Compound 2] | 10 (10: 100%) | 10 (10: 100%) | 9 (9: 90% to less than 100%) | 9 (9: 90% to less than 100%) | 9 (9: 90% to less than 100%) | 9 (9: 90% to less than 100%) | 10 (10: 100%) | 10 (10: 100%) | phytotoxicity, Oryza sativa (Oryza sativa; 1g a.i./10a): 1 (1: 10% to less than 20%); phytotoxicity, Oryza sativa (Oryza sativa; 5g a.i./10a): 1 (1: 10% to less than 20%); herbicidal efficacy, Scirpus juncoides (Scirpus juncoides; 1g a.i./10a): 9 (9: 90% to less than 100%); herbicidal efficacy, Scirpus juncoides (Scirpus juncoides; 5g a.i./10a): 9 (9: 90% to less than 100%); herbicidal efficacy, Echinochloa crus-galli (Echinochloa crus-galli; 1g a.i./10a): 10 (10: 100%); herbicidal efficacy, Echinochloa crus-galli (Echinochloa crus-galli; 5g a.i./10a): 10 (10: 100%); herbicidal efficacy, Monochoria vaginalis (Monochoria vaginalis; 1g a.i./10a): 10 (10: 100%); herbicidal efficacy, Monochoria vaginalis (Monochoria vaginalis; 5g a.i./10a): 10 (10: 100%); herbicidal efficacy, Amaranthus retroflexus (Amaranthus retroflexus [5]; 5g a.i./10a): 10 (10: 100%); herbicidal efficacy, Amaranthus retroflexus (Amaranthus retroflexus [5]; 10g a.i./10a): 10 (10: 100%); herbicidal efficacy, Digitaria ciliaris (Digitaria ciliaris [6]; 5g a.i./10a): 10 (10: 100%); herbicidal efficacy, Digitaria ciliaris (Digitaria ciliaris [6]; 10g a.i./10a): 10 (10: 100%); herbicidal efficacy, Chenopodium album (Chenopodium album [7]; 5g a.i./10a): 10 (10: 100%); herbicidal efficacy, Chenopodium album (Chenopodium album [7]; 10g a.i./10a): 10 (10: 100%)
CC1(C(=O)Nc2c(C#N)cnn2-c2nn3c(c2Cl)CCCC3)CC1 [Compound 3] |  |  |  |  |  |  | 10 (10: 100%) | 10 (10: 100%) | 
N#Cc1cnn(-c2nn3c(c2Cl)CCCC3)c1NC(=O)C1CCC1 [Compound 4] |  |  |  |  |  |  | 10 (10: 100%) | 10 (10: 100%) | 
N#Cc1cnn(-c2nn3c(c2Cl)CCCC3)c1NC(=O)C1CCCC1 [Compound 5] |  |  |  |  |  |  | 10 (10: 100%) | 10 (10: 100%) | 
O=C(Nc1c([N+](=O)[O-])cnn1-c1nn2c(c1Cl)CCCC2)C1CCCC1 [Compound 6] | 10 (10: 100%) | 10 (10: 100%) | 9 (9: 90% to less than 100%) | 9 (9: 90% to less than 100%) | 9 (9: 90% to less than 100%) | 9 (9: 90% to less than 100%) | 10 (10: 100%) | 9 (9: 90% to less than 100%) | phytotoxicity, Oryza sativa (Oryza sativa; 1g a.i./10a): 0 (0 (exponent): 0% to less than 10% (growth inhibition rate)); phytotoxicity, Oryza sativa (Oryza sativa; 5g a.i./10a): 1 (1: 10% to less than 20%); herbicidal efficacy, Scirpus juncoides (Scirpus juncoides; 1g a.i./10a): 9 (9: 90% to less than 100%); herbicidal efficacy, Scirpus juncoides (Scirpus juncoides; 5g a.i./10a): 9 (9: 90% to less than 100%); herbicidal efficacy, Echinochloa crus-galli (Echinochloa crus-galli; 1g a.i./10a): 10 (10: 100%); herbicidal efficacy, Echinochloa crus-galli (Echinochloa crus-galli; 5g a.i./10a): 10 (10: 100%); herbicidal efficacy, Monochoria vaginalis (Monochoria vaginalis; 1g a.i./10a): 10 (10: 100%); herbicidal efficacy, Monochoria vaginalis (Monochoria vaginalis; 5g a.i./10a): 10 (10: 100%); herbicidal efficacy, Amaranthus retroflexus (Amaranthus retroflexus [5]; 5g a.i./10a): 10 (10: 100%); herbicidal efficacy, Amaranthus retroflexus (Amaranthus retroflexus [5]; 10g a.i./10a): 10 (10: 100%); herbicidal efficacy, Digitaria ciliaris (Digitaria ciliaris [6]; 5g a.i./10a): 10 (10: 100%); herbicidal efficacy, Digitaria ciliaris (Digitaria ciliaris [6]; 10g a.i./10a): 10 (10: 100%); herbicidal efficacy, Chenopodium album (Chenopodium album [7]; 5g a.i./10a): 10 (10: 100%); herbicidal efficacy, Chenopodium album (Chenopodium album [7]; 10g a.i./10a): 10 (10: 100%)
N#Cc1cnn(-c2nn3c(c2Cl)CCCC3)c1NC(=O)C1CCCCC1 [Compound 7] |  |  |  |  |  |  | 10 (10: 100%) | 10 (10: 100%) | 
O=C(CC1CC1)Nc1c([N+](=O)[O-])cnn1-c1nn2c(c1Cl)CCCC2 [Compound 8] | 10 (10: 100%) | 10 (10: 100%) | 9 (9: 90% to less than 100%) | 10 (10: 100%) | 10 (10: 100%) | 10 (10: 100%) | 10 (10: 100%) | 9 (9: 90% to less than 100%) | phytotoxicity, Oryza sativa (Oryza sativa; 1g a.i./10a): 0 (0 (exponent): 0% to less than 10% (growth inhibition rate)); phytotoxicity, Oryza sativa (Oryza sativa; 5g a.i./10a): 0 (0 (exponent): 0% to less than 10% (growth inhibition rate)); herbicidal efficacy, Scirpus juncoides (Scirpus juncoides; 1g a.i./10a): 9 (9: 90% to less than 100%); herbicidal efficacy, Scirpus juncoides (Scirpus juncoides; 5g a.i./10a): 10 (10: 100%); herbicidal efficacy, Echinochloa crus-galli (Echinochloa crus-galli; 1g a.i./10a): 9 (9: 90% to less than 100%); herbicidal efficacy, Echinochloa crus-galli (Echinochloa crus-galli; 5g a.i./10a): 10 (10: 100%); herbicidal efficacy, Monochoria vaginalis (Monochoria vaginalis; 1g a.i./10a): 10 (10: 100%); herbicidal efficacy, Monochoria vaginalis (Monochoria vaginalis; 5g a.i./10a): 10 (10: 100%); herbicidal efficacy, Amaranthus retroflexus (Amaranthus retroflexus [5]; 5g a.i./10a): 10 (10: 100%); herbicidal efficacy, Amaranthus retroflexus (Amaranthus retroflexus [5]; 10g a.i./10a): 10 (10: 100%); herbicidal efficacy, Digitaria ciliaris (Digitaria ciliaris [6]; 5g a.i./10a): 9 (9: 90% to less than 100%); herbicidal efficacy, Digitaria ciliaris (Digitaria ciliaris [6]; 10g a.i./10a): 10 (10: 100%); herbicidal efficacy, Chenopodium album (Chenopodium album [7]; 5g a.i./10a): 10 (10: 100%); herbicidal efficacy, Chenopodium album (Chenopodium album [7]; 10g a.i./10a): 10 (10: 100%)
N#Cc1cnn(-c2nn3c(c2Cl)CCCC3)c1NC(=O)CC1CCCC1 [Compound 29] |  |  |  |  |  |  | 10 (10: 100%) | 10 (10: 100%) | 
N#Cc1cnn(-c2nn3c(c2Cl)CCCC3)c1NC(=O)CCC1CCCC1 [Compound 30] |  |  |  |  |  |  | 10 (10: 100%) | 10 (10: 100%) | 
N#Cc1cnn(-c2nn3c(c2Cl)CCCC3)c1NC(=O)CCC1CC=CCC1 (centres unmarked) [Compound 31] |  |  |  |  |  |  | 10 (10: 100%) | 10 (10: 100%) | 

From US10258039B2, “Substituted pyrazolylpyrazole derivative and use of same as herbicide” (KYOYU AGRI CO., LTD., priority 2015, dated 2019)
